Results as given in US8124605B2, “Compositions and methods for modulating a kinase cascade” (Kinex Pharmaceuticals, LLC, priority 2007, dated 2012).

Tests used:
Assay type in all cases: cell-based
JAK3 = target: T1, JAK3 (Homo sapiens, UniProt P52333); test: JAK phosphorylation/activation by flow cytometry, pSTAT5 staining in IL-4 stimulated U-937 cells; conditions: drug 30 min, then IL-4
T1 construct: U-937 cells, histiocytic lymphoma cell line; endogenous in cells; host or cells: U-937 (ATCC CRL-1593.2)
T1 sequence (P52333 1-1124): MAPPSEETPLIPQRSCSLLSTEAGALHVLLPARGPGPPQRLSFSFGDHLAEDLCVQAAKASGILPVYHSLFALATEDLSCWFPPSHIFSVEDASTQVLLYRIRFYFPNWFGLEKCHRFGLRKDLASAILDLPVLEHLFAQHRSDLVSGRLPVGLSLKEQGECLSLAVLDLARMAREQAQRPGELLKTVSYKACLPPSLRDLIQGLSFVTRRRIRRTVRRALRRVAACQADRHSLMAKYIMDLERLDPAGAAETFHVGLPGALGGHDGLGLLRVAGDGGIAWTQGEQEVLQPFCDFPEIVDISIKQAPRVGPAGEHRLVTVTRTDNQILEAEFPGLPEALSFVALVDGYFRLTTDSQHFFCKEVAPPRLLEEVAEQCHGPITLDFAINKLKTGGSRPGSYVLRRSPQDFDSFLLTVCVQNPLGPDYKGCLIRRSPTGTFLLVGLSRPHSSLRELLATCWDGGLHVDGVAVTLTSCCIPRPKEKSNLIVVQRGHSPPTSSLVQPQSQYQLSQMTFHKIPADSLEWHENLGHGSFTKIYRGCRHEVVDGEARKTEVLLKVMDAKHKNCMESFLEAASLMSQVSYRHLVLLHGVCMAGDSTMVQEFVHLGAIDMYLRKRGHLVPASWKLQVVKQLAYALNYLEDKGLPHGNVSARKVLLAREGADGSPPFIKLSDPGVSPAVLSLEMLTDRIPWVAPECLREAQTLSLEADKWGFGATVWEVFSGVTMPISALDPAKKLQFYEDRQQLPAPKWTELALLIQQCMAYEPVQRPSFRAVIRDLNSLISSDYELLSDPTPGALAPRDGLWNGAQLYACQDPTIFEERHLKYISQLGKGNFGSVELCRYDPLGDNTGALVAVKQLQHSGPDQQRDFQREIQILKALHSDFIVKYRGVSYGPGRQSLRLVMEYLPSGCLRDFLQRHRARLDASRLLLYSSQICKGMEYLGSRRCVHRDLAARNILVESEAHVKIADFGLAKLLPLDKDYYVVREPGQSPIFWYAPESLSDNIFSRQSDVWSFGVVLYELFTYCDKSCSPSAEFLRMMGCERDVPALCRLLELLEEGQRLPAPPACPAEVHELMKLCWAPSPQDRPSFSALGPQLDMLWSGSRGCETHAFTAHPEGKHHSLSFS
Protocol: (§1) The protocol used to analyze the effect of compounds of the invention on JAK phosphorylation/activation is adapted from: Krutzik and Nolan, Cytometry Part A 55A:61-70 (2003).
(§2) Briefly, U-937 cells, histiocytic lymphoma cell line; ATCC No. CRL-1593.2, were treated with compounds of the invention or commercial JAK inhibitors. Cells were then stimulated with IL-4, to engage the JAK/STAT signaling pathway. Cells were fixed with formaldehyde to “freeze” the phosphorylation states of intracellular proteins. Cells were next permeabilized, and stained with mAbs directed against the phosphorylated STAT (pSTAT) proteins. The positive shift in fluorescence due to pSTAT staining serves as a surrogate to JAK phosphorylation/activation: no flow cytometric mAbs specific to JAKs exist, so the proximal downstream signaling event, STAT phosphorylation, is measured. A decrease in fluorescence, due to drug incubation prior to IL-4 stimulation, is an indirect indication of JAK inhibition. The following antibodies were used: apSTAT5-PE: monoclonal antibody to the intracellular STAT5a protein phosphorylated at Tyrosine 694; conjugated to the fluorochrome phycoerythrin (PE); BD No. 612567 and apSTAT6-Alex647: monoclonal antibody to the intracellular STAT6 protein phosphorylated at Tyrosine 641; conjugated to the fluorochrome Alexa Fluor 647; BD No. 612601. The detailed protocol is described below:
(§3) Resuspend U-937 cells @ 8×10^5 cells/mL in complete culture medium (RPMI-1640/10% FBS).
(§4) Add 0.5 mL cell suspension to each well of 24-well tissue culture plate.
(§5) Add drug treatment (compounds, controls) for 30 min @ 37° C., 5% CO2.
(§6) Add cytokine/growth factor to stimulate; 15-30 min @ 37° C. (1 μL/0.5 mL cell suspension; IL-4, IL-2, IL-15=20 ng/mL)
(§7) Transfer cells to 5 mL Flow tubes.
(§8) Add 16% Formaldehyde directly to cell culture to obtain final concentration of 1.5% formaldehyde. (47 μL formaldehyde+0.5 mL cell culture)
(§9) Incubate cells in fixative for 15 min @ 37° C., 5% CO2.
(§10) Add 3 mL cold “Staining Media” (PBS/1% BSA) to each tube; centrifuge cells @ 1100 RPM, 3 min. Discard supernatant.
(§11) Resuspend cells with vigorous vortexing in 200 μL ice-cold Methanol.
(§12) Incubate cells on ice, 30 min.
(§13) Wash cells twice in 2 mL “Staining Medium” (centrifuge cells @ 1100 RPM, 3 min). Discard supernatant.
(§14) Add 8 μL of fluorophore-conjugated, phosphoprotein-specific mAbs to cells. Incubate cells at RT, 60 min, in the dark.
(§15) Wash cells with 4 mL Staining Media. Centrifuge cells @ 1100 RPM, 3 min. Discard supernatant.
(§16) Resuspend cells in 350 μL Staining Media.
(§17) Acquire cellular events on BD FACSCalibur cytometer.

JAK1 = target: T2, JAK1 (Homo sapiens, UniProt P23458); test: JAK phosphorylation/activation by flow cytometry, pSTAT6 staining in IL-4 stimulated U-937 cells; conditions: drug 30 min, then IL-4
T2 construct: U-937 cells, histiocytic lymphoma cell line; endogenous in cells; host or cells: U-937 (ATCC CRL-1593.2)
Protocol: as §1, §2, §3, §4, §5, §6, §7, §8, §9, §10, §11, §12, §13, §14, §15, §16, §17

[1] = test system: human colon tumor cell line HT-29; test: Cell proliferation assay (MTT assay), GI50; conditions: HT-29, 72 h, 3 days incubation, read-out: GI50 HT29
Protocol: (§18) The GI50s for several of the compounds of the invention are assayed as described herein.
(§19) Cell line and culture media—the human colon tumor cell line HT-29 was obtained from Dr. Irwin Gelman (Roswell Park Cancer Institute, Buffalo, N.Y.) and maintained in McCoy's 5A medium supplemented with 2% fetal bovine serum and penicillin-streptomycin. SYF/c-Src527F cell line was also obtained from Dr. Irwin Gelman and maintained in Dulbecco's modified Eagle's medium (DMEM) supplemented with 2% bovine serum and penicillin-streptomycin. Both cell lines were incubated in an atmosphere containing 5% CO2 at 37° C.
(§20) Cell proliferation assay (MTT assay)-HT-29 (7,000 cells) and SYF/c-Src527F (4,000 cells) cells were plated in 120 μl of culture medium per well of 96-well plate. Cells were incubated overnight before drug treatment. Test compounds were diluted in culture medium in a separate 96-well plate to yield 10× concentrations of test dose (50 nM, 500 nM, 5 μM, 50 μM, and 500 μM). 13.3 μl of the 10× compound was added to each well of cells to achieve the final test concentrations (5 nM, 50 nM, 500 nM, 5 μM and 50 μM). After 3 days incubation, 10 μl of MTT (Thiazolyl Blue Tetrazolium Bromide, 5 mg/ml in PBS) was added to each well and incubate for 3 hours at 37° C. After removal of culture medium, 100 μl of isopropanol containing 40 mM HCl was added to each well and incubate for 10 minutes on a shaker to dissolve the MTT formazan. Optical density (OD) at 570 nm was then measured using microplate reader and cell growth inhibition (percentage of growth) by each concentration of drug was calculated as: % growth=100×[(T−T0)/(C−T0)] (T: OD of the test well exposure to test drug; C: OD of the control well without drug treatment; T0: OD at time zero). Growth inhibition curves and GI50 were determined using GraphPad Prism 5 statistical software.

SYF/c-Src527F cell line = test: Cell proliferation assay (MTT assay), GI50; conditions: Mus musculus, 72 h, 3 days incubation
Protocol: as §18, §19, §20

T2 sequence (P23458 whole entry): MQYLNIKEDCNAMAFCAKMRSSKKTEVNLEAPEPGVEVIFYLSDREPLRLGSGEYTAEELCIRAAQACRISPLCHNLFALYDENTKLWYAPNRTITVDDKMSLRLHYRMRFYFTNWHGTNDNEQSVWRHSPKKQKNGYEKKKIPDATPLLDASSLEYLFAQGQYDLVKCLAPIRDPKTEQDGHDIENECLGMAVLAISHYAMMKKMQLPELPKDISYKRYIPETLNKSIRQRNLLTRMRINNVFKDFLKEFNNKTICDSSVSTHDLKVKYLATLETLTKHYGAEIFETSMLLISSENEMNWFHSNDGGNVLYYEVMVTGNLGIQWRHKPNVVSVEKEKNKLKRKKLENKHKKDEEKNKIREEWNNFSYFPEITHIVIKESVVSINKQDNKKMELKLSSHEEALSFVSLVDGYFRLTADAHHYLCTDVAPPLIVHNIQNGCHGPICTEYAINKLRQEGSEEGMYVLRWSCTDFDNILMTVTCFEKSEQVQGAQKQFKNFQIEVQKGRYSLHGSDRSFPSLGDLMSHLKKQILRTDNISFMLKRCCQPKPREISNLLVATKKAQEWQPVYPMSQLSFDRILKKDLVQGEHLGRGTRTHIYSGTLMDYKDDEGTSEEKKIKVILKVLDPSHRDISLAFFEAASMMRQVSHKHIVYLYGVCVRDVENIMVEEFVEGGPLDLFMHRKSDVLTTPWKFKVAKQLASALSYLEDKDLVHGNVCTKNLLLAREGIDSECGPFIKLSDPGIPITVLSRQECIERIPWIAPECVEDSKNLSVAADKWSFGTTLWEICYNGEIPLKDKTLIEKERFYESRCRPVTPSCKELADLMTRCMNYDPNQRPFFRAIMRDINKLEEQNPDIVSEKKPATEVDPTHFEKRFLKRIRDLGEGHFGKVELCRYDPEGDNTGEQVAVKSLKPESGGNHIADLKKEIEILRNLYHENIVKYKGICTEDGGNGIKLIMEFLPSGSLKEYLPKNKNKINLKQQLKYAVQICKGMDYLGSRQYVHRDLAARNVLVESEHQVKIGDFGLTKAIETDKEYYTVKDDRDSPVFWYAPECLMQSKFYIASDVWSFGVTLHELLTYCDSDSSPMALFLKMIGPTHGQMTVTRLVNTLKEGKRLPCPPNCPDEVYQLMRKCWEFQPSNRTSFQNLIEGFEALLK

Row | SMILES | JAK3 pStat5-PE Signal (JAK3) | JAK3 pStat5-PE Signal/Background (JAK3) | JAK1 pStat6-Alexa647 Signal (JAK1) | JAK1 pStat6-Alexa647 Signal/Background (JAK1) | GI50 [1] [µM] | GI50 (SYF/c-Src527F cell line) [µM]
1 | O=C(Cc1ccccc1)NCc1ccc(-c2ccccc2)cc1 [Compound 125] | 4.58 | 1.56 | 29.48 | 7.05 | 0.46 | 0.75
2 | O=C(NCCc1ccc(-c2ccccc2)cc1)c1ccccc1 [Compound 126] | 5.34 | 1.82 | 30.85 | 7.38 | 2.8 | 3.1
3 | c1ccc(CNCCc2ccc(-c3ccccc3)cc2)cc1 [Compound 127] | 3.38 | 1.15 | 18.81 | 4.50 | 3.3 | 1.4
4 | O=C(NCc1ccccc1)Nc1ccc(-c2ccccc2)cn1 [Compound 129] | 4.15 | 1.42 | 23.06 | 5.51 | 5.4 | 24.7
5 | O=C(NCc1ccccc1)Oc1ccc(-c2ccccc2)cc1 [Compound 130] | 5.21 | 1.78 | 31.77 | 7.60 | 27.1 | 7.6
6 | O=S(=O)(Cc1ccc(Br)cc1)NCc1ccc(-c2ccccc2)cc1 [Compound 134] | 3.66 | 1.25 | 21.47 | 5.14 | 5.6 | 4.9
7 | c1ccc(CCSCc2ccc(-c3ccccc3)cc2)cc1 [Compound 135] | 3.48 | 1.19 | 17.15 | 4.10 | 9.7 | 18.6
8 | [O-][S+](CCc1ccccc1)Cc1ccc(-c2ccccc2)cc1 (centres unmarked) [Compound 137] | 3.71 | 1.27 | 22.03 | 5.27 | 1.8 | 0.97
9 | O=S(=O)(Cc1ccc(-c2ccccc2)cc1)NCc1ccccc1 [Compound 138] | 4.10 | 1.40 | 28.65 | 6.85 | 13.9 | 1.4
10 | O=S(=O)(CCc1ccccc1)Cc1ccc(-c2ccccc2)cc1 [Compound 139] | 4.41 | 1.51 | 25.08 | 6.00 | 2.9 | 2.2
11 | O=C(Cc1ccccc1)NCc1ccc(-c2ccccc2)cn1 [Compound 140] | 3.02 | 1.14 | 13.76 | 3.62 | 2.1 | 11.8
12 | O=C(CCc1ccccc1)Cc1ccc(-c2ccccc2)cn1 [Compound 150] | 3.36 | 1.27 | 14.48 | 3.81 | 5.7 | 20.8
13 | O=C(Cc1ccccc1)NCc1ccc(OCc2ccccc2)cc1 [Compound 163] | 3.24 | 1.22 | 15.35 | 4.04 | 62.9 | 275
14 | O=C(Cc1ccc(-c2ccccc2)cc1)NCc1cccc(F)c1 [Control A] | 4.12 | 1.41 | 23.79 | 5.69 |  | 
15 | O=C(Cc1ccc(-c2ccc(OCCN3CCOCC3)cc2)cn1)NCc1ccccc1 [Control B] | 3.42 | 1.17 | 19.03 | 4.55 |  | 
16 | COc1cc2ncnc(Nc3ccc(O)cc3)c2cc1OC [WHI-P131] | 3.19 | 1.09 | 33.80 | 8.09 |  | 
17 | COc1cc2ncnc(Nc3ccc(O)c(Br)c3)c2cc1OC [WHI-P154] | 1.63 | 0.56 | 14.54 | 3.48 |  | 
18 | O=C(Cc1ccc(-c2ccccc2)cc1)NCc1cccc(F)c1 [drawing 586] |  |  |  |  | 0.27 | 0.46
19 | O=C(Cc1ccc(-c2ccc(OCCN3CCOCC3)cc2)cn1)NCc1ccccc1 [drawing 587] |  |  |  |  | 0.026 | 0.023
